Converted amounts (≈) assume the structure as drawn.
Columns and labels:
[1] = SUPPLEMENTARY: Lipophilicity (log D) Determination by high-throughput shake-flask; type: physicochemical; settings: octanol/water
[2] = target: T1, Carnitine O-palmitoyltransferase 1, liver isoform (Homo sapiens, UniProt P50416); experiment: (§1) SUPPLEMENTARY: Inhibition of Carnitine palmitoyltransferase 1, liver isoform
T1 sequence (P50416 whole entry): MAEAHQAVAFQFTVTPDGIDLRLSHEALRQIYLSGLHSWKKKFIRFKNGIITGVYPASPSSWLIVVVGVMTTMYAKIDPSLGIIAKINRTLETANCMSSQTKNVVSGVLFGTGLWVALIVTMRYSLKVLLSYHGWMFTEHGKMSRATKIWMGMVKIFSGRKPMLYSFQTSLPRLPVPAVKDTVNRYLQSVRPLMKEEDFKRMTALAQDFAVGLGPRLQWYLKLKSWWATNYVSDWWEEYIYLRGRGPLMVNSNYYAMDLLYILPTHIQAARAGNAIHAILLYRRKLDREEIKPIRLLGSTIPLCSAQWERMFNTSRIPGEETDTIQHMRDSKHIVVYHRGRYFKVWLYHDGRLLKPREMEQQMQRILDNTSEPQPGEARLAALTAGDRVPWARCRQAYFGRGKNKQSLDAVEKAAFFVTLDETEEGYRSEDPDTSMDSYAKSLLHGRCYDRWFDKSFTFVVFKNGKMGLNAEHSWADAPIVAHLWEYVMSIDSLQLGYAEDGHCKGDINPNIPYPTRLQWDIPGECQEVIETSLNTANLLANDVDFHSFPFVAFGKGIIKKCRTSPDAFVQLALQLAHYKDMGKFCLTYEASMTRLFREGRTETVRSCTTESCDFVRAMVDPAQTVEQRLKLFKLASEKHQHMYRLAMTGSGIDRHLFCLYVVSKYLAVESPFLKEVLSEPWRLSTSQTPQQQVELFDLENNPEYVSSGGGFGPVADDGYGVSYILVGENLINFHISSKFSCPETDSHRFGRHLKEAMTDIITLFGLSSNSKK

[3] = target: T2, Carnitine O-palmitoyltransferase 1, liver isoform (Rattus norvegicus, UniProt P32198); experiment: as §1
T2 sequence (P32198 whole entry): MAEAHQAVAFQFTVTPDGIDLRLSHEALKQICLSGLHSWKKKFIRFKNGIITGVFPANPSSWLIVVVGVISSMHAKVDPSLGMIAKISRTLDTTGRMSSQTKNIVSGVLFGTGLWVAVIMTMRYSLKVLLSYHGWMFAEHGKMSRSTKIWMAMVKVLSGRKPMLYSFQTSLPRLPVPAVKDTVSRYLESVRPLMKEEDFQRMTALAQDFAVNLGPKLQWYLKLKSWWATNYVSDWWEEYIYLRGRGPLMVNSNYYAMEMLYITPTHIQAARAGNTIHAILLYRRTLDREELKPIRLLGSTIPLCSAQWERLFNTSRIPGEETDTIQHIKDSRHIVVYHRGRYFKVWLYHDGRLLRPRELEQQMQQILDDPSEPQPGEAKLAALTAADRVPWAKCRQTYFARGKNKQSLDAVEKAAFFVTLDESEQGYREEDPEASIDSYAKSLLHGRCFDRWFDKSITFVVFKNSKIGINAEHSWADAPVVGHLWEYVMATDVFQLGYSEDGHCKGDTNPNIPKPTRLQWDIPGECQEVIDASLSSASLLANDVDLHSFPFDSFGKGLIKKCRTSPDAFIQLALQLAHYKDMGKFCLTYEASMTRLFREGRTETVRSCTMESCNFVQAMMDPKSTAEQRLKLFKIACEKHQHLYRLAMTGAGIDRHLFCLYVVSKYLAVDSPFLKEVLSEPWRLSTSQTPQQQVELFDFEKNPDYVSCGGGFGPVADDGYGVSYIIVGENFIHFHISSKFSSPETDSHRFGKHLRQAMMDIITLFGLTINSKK

[4] = SUPPLEMENTARY: PAMPA permeability assay; type: physicochemical; settings: read-out: Permeability
[5] = target: T3, Carnitine O-palmitoyltransferase 1, muscle isoform (Homo sapiens, UniProt Q92523); experiment: SUPPLEMENTARY: Inhibition of Carnitine palmitoyltransferase 1, muscle isoform; parameters: species or system Muscle tissue
T3 sequence (Q92523 whole entry): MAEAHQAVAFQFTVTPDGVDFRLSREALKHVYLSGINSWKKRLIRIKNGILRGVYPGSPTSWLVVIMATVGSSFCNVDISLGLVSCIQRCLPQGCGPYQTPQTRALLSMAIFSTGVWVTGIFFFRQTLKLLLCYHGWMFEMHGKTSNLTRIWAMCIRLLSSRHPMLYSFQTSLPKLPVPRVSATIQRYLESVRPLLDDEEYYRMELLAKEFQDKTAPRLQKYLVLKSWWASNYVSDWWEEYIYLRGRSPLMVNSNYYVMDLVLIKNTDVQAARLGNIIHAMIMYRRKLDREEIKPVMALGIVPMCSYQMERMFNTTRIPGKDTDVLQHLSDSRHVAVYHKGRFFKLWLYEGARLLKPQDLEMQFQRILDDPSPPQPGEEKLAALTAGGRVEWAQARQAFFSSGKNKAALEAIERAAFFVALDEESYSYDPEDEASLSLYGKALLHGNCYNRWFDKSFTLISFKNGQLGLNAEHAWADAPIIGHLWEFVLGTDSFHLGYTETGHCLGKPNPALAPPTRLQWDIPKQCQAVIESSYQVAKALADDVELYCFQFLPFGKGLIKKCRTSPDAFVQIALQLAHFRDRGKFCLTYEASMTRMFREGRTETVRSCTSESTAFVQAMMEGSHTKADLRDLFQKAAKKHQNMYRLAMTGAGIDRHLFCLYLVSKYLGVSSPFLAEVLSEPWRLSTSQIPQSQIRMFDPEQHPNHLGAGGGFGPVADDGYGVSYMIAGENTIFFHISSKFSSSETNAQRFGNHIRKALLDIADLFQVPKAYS

[6] = target: T4, Carnitine O-palmitoyltransferase 2, mitochondrial (Homo sapiens, UniProt P23786); experiment: (§2) SUPPLEMENTARY: Inhibition of Carnitine palmitoyltransferase 2
T4 sequence (P23786 whole entry): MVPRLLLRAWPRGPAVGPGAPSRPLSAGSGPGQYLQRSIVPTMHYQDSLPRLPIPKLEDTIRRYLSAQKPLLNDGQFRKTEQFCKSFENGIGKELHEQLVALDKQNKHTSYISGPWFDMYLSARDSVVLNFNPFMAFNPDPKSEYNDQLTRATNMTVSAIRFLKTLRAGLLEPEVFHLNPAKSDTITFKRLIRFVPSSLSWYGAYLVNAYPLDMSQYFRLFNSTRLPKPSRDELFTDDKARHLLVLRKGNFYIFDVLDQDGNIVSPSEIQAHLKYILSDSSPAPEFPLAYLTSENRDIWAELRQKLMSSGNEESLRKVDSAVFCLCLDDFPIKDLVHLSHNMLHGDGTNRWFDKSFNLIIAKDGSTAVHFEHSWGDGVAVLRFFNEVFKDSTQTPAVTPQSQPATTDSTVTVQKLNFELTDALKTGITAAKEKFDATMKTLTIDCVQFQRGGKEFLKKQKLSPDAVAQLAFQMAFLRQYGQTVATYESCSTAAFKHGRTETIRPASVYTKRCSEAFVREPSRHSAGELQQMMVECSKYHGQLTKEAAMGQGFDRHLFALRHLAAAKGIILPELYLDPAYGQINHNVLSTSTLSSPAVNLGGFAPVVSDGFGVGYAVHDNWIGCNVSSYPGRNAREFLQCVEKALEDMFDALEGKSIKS

[7] = target: T5, Carnitine O-palmitoyltransferase 2, mitochondrial (Rattus norvegicus, UniProt P18886); experiment: as §2
T5 sequence (P18886 whole entry): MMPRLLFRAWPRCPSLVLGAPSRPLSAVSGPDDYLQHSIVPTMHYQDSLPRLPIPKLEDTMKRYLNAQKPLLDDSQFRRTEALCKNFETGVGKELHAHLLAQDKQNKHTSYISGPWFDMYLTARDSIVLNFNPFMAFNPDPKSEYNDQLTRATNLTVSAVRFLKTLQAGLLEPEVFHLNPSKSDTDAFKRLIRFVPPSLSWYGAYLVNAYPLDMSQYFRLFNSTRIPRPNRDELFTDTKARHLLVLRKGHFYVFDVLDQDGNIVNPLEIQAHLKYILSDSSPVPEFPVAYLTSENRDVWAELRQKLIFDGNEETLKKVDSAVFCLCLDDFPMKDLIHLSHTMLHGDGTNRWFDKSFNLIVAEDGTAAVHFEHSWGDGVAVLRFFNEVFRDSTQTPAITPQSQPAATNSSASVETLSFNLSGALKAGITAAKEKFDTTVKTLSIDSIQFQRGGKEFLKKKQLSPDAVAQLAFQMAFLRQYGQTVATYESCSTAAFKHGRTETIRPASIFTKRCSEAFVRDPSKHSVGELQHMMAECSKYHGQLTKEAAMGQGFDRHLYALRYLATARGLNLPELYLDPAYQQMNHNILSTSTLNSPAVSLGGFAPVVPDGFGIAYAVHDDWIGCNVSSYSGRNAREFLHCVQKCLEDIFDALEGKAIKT

[8] = SUPPLEMENTARY: Lyophilisation Solubility Assay (LYSA); type: physicochemical; settings: read-out: Kinetic_solubility

Row | logD [1] | IC50 [2] [nM] | IC50 [3] [nM] | Papp [4] [×10⁻⁶ cm/s] | IC50 [5] [nM] | IC50 [6] [nM] | IC50 [7] [nM] | solubility kinetic [8] [µg/mL] | SMILES
1 | 2.17 | 190 | 428 | 4.04 | > 100000 | 54300 | > 100000 | 295 (≈ 680 µM) | CC(=O)NCc1cccc(-c2n[nH]c([C@H]3CCCCN3C(=O)COc3ccccc3)n2)c1
2 | 1.48 | 82.2 | 43 | 2.81 | 7330 | 1950 | 5640 | 20 (≈ 40.9 µM) | O=C(O)c1ccc(NC(=O)c2ccc3c(c2)N(S(=O)(=O)c2cccc(Cl)c2)CCS3)cc1
3 | 2.61 | 117 | 129 | 3.59 | 63800 | 14400 | > 100000 | 51 (≈ 123 µM) | Nc1ncc(Cl)c(-c2nc([C@H]3CCCCN3C(=O)COc3ccccc3)no2)n1
4 | 0.12 | 166 | 125 | 0.39 | 1730 | > 100000 | > 100000 | 70 (≈ 136 µM) | COc1ccc(Cl)cc1S(=O)(=O)c1nn(C)c2ccc(C(=O)Nc3ccc(CC(=O)O)cc3)cc12
5 | 3.24 | 145 | 121 | 5.91 | > 100000 | 388 | 496 | 36 (≈ 74.4 µM) | O=C([C@H]1CCCCN1C(=O)COc1ccccc1)N1Cc2cc(Cl)c(N3CCOCC3)cc2C1
6 | 0.55 | 31 | 18.1 | 1.95 | 5300 | 2800 | 10500 | 481 (≈ 935 µM) | Cc1cc(C)cc(S(=O)(=O)N2CCS(=O)(=O)c3ccc(C(=O)Nc4ccc(C(=O)O)cc4)cc32)c1
7 | 1.34 | 236 | 440 | 3.2 | 2560 | > 100000 | > 100000 | 438 (≈ 816 µM) | COc1ccc(Cl)cc1CN(C(=O)C(C)C)c1cc(C(=O)Nc2nc(CC(=O)O)cs2)ccc1Cl
8 | 3.16 | 80.7 | 143 | 5.52 | > 100000 | 22000 | > 100000 | 6 (≈ 15.4 µM) | N#Cc1ccc(-c2nc([C@H]3CCCCN3C(=O)COc3ccccc3)no2)cc1
9 | 2.62 | 65.1 | 102 | 3.43 | > 100000 | 10300 | 58700 | 127 (≈ 275 µM) | O=C1CN(c2cccc(-c3nc([C@H]4CCCCN4C(=O)COc4ccccc4)no3)c2)C(=O)N1
10 | 0.54 | 47.2 | 17 | 3.46 | 602 | > 100000 | > 100000 | 216 (≈ 403 µM) | COc1ccc(Cl)cc1S(=O)(=O)N1CCCCc2ccc(C(=O)Nc3nc(CC(=O)O)cs3)cc21
11 | 0.31 | 20.8 | 14 | 1.83 | 5900 | > 100000 | > 100000 | 203 (≈ 405 µM) | COc1ccc(Cl)cc1S(=O)(=O)N1CC(C(=O)O)Cc2ccc(C(=O)Nc3ccccc3)cc21 (configuration not stated)
12 | 2.85 | 75.8 | 169 | 2.96 | 9880 | 42100 | > 100000 | 18 (≈ 49.7 µM) | NC(=O)c1ccc(C#C[C@H]2CCCCN2C(=O)COc2ccccc2)cc1
13 | 2.38 | 88.5 | 96.8 | 1.81 | 6240 | 10800 | 28100 | 3 (≈ 6.06 µM) | COc1ccc(Cl)cc1CN1C(=O)OC(C)(C)c2ccc(C(=O)Nc3ccc(C(=O)O)cc3)cc21

Row | SMILES | logD [1] | IC50 [2] [nM] | IC50 [3] [nM] | Papp [4] [×10⁻⁶ cm/s] | IC50 [5] [nM] | IC50 [6] [nM] | IC50 [7] [nM] | solubility kinetic [8] [µg/mL]
14 | CN1CCN(C(=O)COc2ccccc2)[C@@H](c2nc(-c3ccc4[nH]nnc4c3)no2)C1 | 1.86 | 24.6 | 265 | 3.75 | > 100000 | > 100000 | > 100000 | 167 (≈ 398 µM)
